Tests used:
[1] = MTT cytotoxicity (24 h) / antiproliferation (72 h) assay; type: cell-based; details: human, MRC-5 embryonal lung fibroblast cells (non-cancerous); for IC50 at 24 h: 24 h exposure; for IC50 at 72 h: 72 h exposure
Method: MRC-5 human embryonal lung fibroblast cell line (ATCC CCL-171) was purchased from LGC Promochem, Teddington, UK. The cell line was cultured in Eagle’s Minimal Essential Medium (EMEM, containing 4.5 g/L glucose) supplemented with a non-essential amino acid mixture, a selection of vitamins and 10% heat-inactivated foetal bovine serum. The cell line was incubated at 37 °C, in a 5% CO2, 95% air atmosphere.
In the study non-cancerous human embryonic lung fibroblast MRC-5, human colonic adenocarcinoma cell line (doxorubicin-sensitive Colo 205, multidrug resistant Colo 320) and neuroblastoma cell line SH-SY5Y were used to determine the effect of compounds on cell growth. The effects of increasing concentrations of compounds on cell growth were tested in 96-well flat-bottomed microtiter plates. The compounds were diluted in a volume of 100 μL of medium.
The adherent human embryonal lung fibroblast and SH-SY5Y neuroblastoma cells were cultured in 96-well flat-bottomed microtiter plates, using EMEM supplemented with 10% heat-inactivated foetal bovine serum. The density of the cells was adjusted to 2 × 10^4 cells in 100 μL per well, the cells were seeded for 24 h at 37 °C, 5% CO2, then the medium was removed from the plates containing the cells, and the dilutions of compounds previously made in a separate plate were added to the cells in 200 μL.
The culture plates were incubated at 37 °C for 24 h; at the end of the incubation period, 20 μL of MTT (thiazolyl blue tetrazolium bromide, Sigma) solution (from a stock solution of 5 mg/mL) were added to each well. After incubation at 37 °C for 4 h, 100 μL of sodium dodecyl sulfate (SDS) (Sigma) solution (10% in 0.01 M HCI) were added to each well and the plates were further incubated at 37 °C overnight. Cell growth was determined by measuring the optical density (OD) at 540/630 nm with Multiscan EX ELISA reader (Thermo Labsystems, Cheshire, WA, USA). […] Curves were fitted by GraphPad Prism software using the sigmoidal dose-response model (comparing variable and fixed slopes).
The method is similar to the one described in the assay for cytotoxic effect. […] The culture plates were incubated at 37 °C for 72 h and after the incubation time, the plates were stained with MTT according to the previous experimental protocol described for the cytotoxicity assay.

OCT1 = target: T1, OCT1 (Homo sapiens, UniProt O15245); assay: [3H]-MPP+ uptake inhibition assay in HEK-293 cells; type: cell-based; details: 10 min uptake; for IC50: HEK cells stably expressing human OCT1
T1 construct: expressed in transfected cells
T1 sequence (O15245 1-554): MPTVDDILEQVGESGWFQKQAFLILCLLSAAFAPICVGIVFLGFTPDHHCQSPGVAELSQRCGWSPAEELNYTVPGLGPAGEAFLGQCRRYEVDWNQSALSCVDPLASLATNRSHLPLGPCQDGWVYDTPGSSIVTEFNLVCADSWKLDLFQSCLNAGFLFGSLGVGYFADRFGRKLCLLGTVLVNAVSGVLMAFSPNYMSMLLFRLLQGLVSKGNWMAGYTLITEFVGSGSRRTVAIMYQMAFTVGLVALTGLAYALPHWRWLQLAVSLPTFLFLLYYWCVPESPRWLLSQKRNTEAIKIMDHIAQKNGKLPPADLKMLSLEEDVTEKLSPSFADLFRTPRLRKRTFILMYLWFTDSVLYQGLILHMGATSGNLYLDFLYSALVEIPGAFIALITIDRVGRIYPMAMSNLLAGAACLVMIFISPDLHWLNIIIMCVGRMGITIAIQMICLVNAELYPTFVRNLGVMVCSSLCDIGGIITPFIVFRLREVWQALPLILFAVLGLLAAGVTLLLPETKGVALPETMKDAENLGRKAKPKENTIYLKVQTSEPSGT
Method: HEK–293 cells (LGC Standards GmbH, Germany) stably expressing human isoforms of wild type organic cation transporters 1–3 (OCT1–3) were cultured in Dulbecco’s modified Eagle’s medium (DMEM; Sigma-Aldrich) with high glucose (4.5 g/L) and L-glutamine (584 mg/L) supplemented with 10% foetal calf serum (FCS; Biowest) and penicillin/streptomycin mixture (50 mg/L; Sigma/Aldrich) at 37 °C in a humidified atmosphere (5% CO2). The selection reagent was Geneticin (150 U/mL; Merck, Germany) for all three cell lines. Cells were seeded onto poly-D-lysine (0.05 mg/mL; Sigma-Aldrich) precoated clear bottom Corning 96 well white assay plate (Sigma-Aldrich) at the density of 4 × 10^4 cells per well 24 h prior to the experiment.
The assay was performed as previously described with slight modification. Briefly, on the day of the experiment, cells were washed once with 100 µL Krebs-HEPES buffer (KHB; 10 mM HEPES, 120 mM NaCl, 3 mM KCl, 2 mM CaCl2·2H2O, 2 mM MgCl2·6H2O, 5 mM D-(+)- glucose, pH 7.3) at room temperature. Cells were preincubated for 10 min in 50 µL of RT KHB containing increasing concentrations of tested compounds previously dissolved in dimethyl sulfoxide (DMSO; final concentration in working solution was 1%). After that, the preincubation solution was quickly removed and replaced with 50 µL of uptake solution containing the aforementioned components with the addition of 50 nM [^3H]-1-methyl-4-phenylpyridinium ([^3H]-MPP^+; 60 Ci/mmol; American Radiolabeled Chemicals, Saint Louis, MO, USA). After the 10 min uptake at RT, the transport was stopped by washing cells with 100 µL of ice-cold KHB and adding 200 µL of Ultima GoldTM XR scintillation cocktail (PerkinElmer, MA, USA). The plates were shaken, placed into Wallac 1450 MicroBeta TriLux Liquid Scintillation Counter and Lumi (GMI, Ramsey, MN, USA) and the released radioactivity was measured for 3 min. Nonspecific [^3H]-MPP^+ uptake was measured in the presence of 100 µM decynium-22 and the data were plotted as a percentage of uptake in the presence of 1% DMSO from which the value of the nonspecific uptake was subtracted. Nonlinear regression analysis (GraphPad Prism version 5.0, GraphPad Software, San Diego, CA, USA) was used for calculation of IC50 values.

| Structure (SMILES) | IC50 at 24 h [1] [µM] | IC50 at 72 h [1] [µM] | IC50 (OCT1) [µM] | IC50 at 10 min (OCT1; HEK-293 cells stably expressing human OCT1, pH 7.3, probe [3H]-MPP+ (50 nM)) [µM] |
| --- | --- | --- | --- | --- |
| CNC(=S)N/N=C/c1cc(C[N+](C)(C)C)ccc1O [[H2L^Me]Cl] | > 100 | > 100 | 391 ± 40 | – |
| C[N+](C)(C)Cc1ccc(O)c(/C=N/NC(=S)Nc2ccccc2)c1 [[H2L^Ph]Cl] | > 100 | > 100 | 119 ± 50 | – |
| CCNC(=S)N/N=C/c1cc(C[N+](C)(C)C)ccc1O [[H2L^Et]Cl] | > 100 | > 100 | 169 ± 26.2 | – |
| C[N+](C)(C)Cc1ccc(O)c(/C=N/NC(N)=S)c1 [[H2L^H]Cl] | > 100 | > 100 | 740 ± 195 | 740 |
